Literature values in US5470884A, “Anti-acne compositions” (Procter & Gamble, priority 1994, dated 1995).

Tested on: skin
Conditions: excessive drying, scaling, swelling, burning, peeling, redness, allergic contact dermatitis, sensitization

For `O=C(OOC(=O)c1ccccc1)c1ccccc1` [benzoyl peroxide], the skin irritation is listed as “very irritating to the skin”.
